Results on 20 compounds are retold here after patent publication US6872735B2, “LFA-1 antagonist compounds” (Genentech, Inc., priority 2000, dated 2005).

The nature of data set [1]: Serum/plasma protein binding (ultrafiltration, LC/MS-MS). The class given is in vitro ADME. Conditions: pH 7.4, 37° C., Centrifree ultrafiltration. The procedure: Binding of test compounds was performed according to procedures described in Borga et al (Journal of Pharmacokinetics & Biopharmaceutics, 1997, 25(1):63-77) and Godolphin et al (Therapeutic drug monitoring, 1983, 5:319-23). Duplicate samples of 10 μl of test compound stock solution (1 μg/μL) was spiked into 1 mL of either buffer or serum/plasma adjusted to pH 7.4 using CO2 at room temperature. Samples were equilibrated by incubating vials in a water bath with shaker at 37° C. for 15 minutes. 200 μl of the buffer spiked sample was saved as prefiltrate. 800 μl of buffer spiked samples and 1 ml of serum spiked samples were centrifuged at 1500 g, 37° C., for 30 minutes in a Centrifree ultrafiltration device (Amicon Inc.). Pre and post-filtrates were then analyzed by LC/MS-MS and percent binding of test compound to serum/plasma protein was determined from the post and prefiltrates accounting for any non-specific binding determined from the buffer control.

Data set [2] concerns the target recombinant human LFA-1 (LFA-1:ICAM-1) (Homo sapiens, UniProt P05107+P20701). The experiment in a line: PLM2 antibody capture LFA-1:ICAM-1 assay.
Procedure: The plates are blocked with 0.5% BSA in assay buffer (0.02M Hepes, 0.15M NaCl, and 1 mM MnCl2) 1 h at room temperature. Plates are washed with 50 mM Tris pH 7.5, 0.1M NaCl, 0.05% Tween 20 and 1 mM MnCl2. Purified full-length recombinant human LFA-1 protein is diluted to 2 μg/ml in assay buffer and 100 μl/well is added to plates and incubated 1 h at 37° C. Plates are washed 3×. 50 μl/well inhibitors, appropriately diluted in assay buffer, are added to a 2× final concentration and incubated for 30′ at 37° C. […] Plates are washed and bound ICAM-Ig is detected with Goat anti-HuIgG(Fc)-HRP for 1 h at room temperature. Plates are washed and developed with 100 μl/well TMB substrate for 5-10′ at room temperature.

Chain of recombinant human LFA-1 (LFA-1:ICAM-1) (P20701 26-1170): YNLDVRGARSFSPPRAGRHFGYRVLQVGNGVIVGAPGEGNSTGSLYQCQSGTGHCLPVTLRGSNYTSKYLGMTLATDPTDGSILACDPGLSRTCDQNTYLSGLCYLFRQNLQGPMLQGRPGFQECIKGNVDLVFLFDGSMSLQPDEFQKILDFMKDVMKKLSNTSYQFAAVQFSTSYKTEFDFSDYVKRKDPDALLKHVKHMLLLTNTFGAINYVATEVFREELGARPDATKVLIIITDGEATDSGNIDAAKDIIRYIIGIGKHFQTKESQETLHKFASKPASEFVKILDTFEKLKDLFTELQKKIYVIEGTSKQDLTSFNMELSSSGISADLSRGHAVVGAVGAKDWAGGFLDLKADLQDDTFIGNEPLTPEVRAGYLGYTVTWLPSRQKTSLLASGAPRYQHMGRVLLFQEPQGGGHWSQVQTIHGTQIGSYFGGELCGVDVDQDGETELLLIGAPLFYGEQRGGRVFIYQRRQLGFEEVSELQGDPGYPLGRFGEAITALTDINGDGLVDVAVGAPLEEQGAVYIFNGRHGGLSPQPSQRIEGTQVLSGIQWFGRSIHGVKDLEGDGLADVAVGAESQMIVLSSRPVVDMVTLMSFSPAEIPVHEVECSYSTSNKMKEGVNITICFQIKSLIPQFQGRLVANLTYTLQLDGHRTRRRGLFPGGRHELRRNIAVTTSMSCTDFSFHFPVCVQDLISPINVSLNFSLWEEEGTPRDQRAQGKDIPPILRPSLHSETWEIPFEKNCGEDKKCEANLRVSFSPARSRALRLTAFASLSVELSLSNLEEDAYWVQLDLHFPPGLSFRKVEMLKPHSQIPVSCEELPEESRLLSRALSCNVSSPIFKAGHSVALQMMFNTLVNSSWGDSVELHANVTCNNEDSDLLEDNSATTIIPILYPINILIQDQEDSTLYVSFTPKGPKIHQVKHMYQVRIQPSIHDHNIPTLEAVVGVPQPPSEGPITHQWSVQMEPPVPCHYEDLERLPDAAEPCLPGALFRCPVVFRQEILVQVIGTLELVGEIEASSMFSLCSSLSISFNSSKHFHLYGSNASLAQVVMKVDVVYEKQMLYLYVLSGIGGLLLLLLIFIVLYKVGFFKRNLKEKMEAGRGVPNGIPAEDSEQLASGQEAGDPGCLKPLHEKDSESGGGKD
Chain of recombinant human LFA-1 (LFA-1:ICAM-1) (P05107 23-769): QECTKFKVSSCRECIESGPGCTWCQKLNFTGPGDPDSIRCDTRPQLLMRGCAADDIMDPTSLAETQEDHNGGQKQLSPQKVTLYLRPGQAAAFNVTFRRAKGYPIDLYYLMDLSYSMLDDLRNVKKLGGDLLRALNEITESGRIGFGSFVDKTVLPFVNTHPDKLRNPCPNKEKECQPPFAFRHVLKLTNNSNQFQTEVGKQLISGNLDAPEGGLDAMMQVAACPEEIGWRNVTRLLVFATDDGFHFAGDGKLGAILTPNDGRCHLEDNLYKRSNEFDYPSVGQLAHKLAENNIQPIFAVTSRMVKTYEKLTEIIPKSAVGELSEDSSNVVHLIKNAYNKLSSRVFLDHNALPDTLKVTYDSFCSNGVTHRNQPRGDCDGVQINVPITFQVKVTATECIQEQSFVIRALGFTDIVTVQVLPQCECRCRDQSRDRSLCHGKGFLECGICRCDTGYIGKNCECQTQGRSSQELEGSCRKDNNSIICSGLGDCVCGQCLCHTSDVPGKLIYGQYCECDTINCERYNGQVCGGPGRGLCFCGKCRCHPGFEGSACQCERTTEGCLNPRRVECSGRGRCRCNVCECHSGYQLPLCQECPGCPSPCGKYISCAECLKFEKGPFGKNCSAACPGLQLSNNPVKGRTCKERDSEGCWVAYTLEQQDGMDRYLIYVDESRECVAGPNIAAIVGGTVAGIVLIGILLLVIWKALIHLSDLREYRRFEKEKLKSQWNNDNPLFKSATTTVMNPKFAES

As for `O=C(/C=C/c1ccco1)NCc1cc(Cl)c(C(=O)N[C@@H](CNC(=O)C2CCNCC2)C(=O)O)c(Cl)c1` [Compound 3], the fraction unbound at 15 min, 10 µg/mL in data set [1] was 0.192. In data set [2], the IC50 came to 11 nM.

With `O=C(/C=C/c1ccco1)NCc1cc(Cl)c(C(=O)N[C@@H](CNC(=O)[C@@H]2CCCN2)C(=O)O)c(Cl)c1` [Compound 4], the fraction unbound at 15 min, 10 µg/mL in data set [1] is 0.171. In data set [2], the IC50 is 4 nM.

As for `O=C(/C=C/c1ccco1)NCc1cc(Cl)c(C(=O)N[C@@H](CNC(=O)[C@H]2CCCN2)C(=O)O)c(Cl)c1` [Compound 5], in data set [1], the fraction unbound at 15 min, 10 µg/mL was 0.169. The IC50 in data set [2] was 8 nM.

In turn, `O=C(/C=C/c1ccco1)NCc1cc(Cl)c(C(=O)N[C@@H](CNC(=O)[C@@H]2CSCN2)C(=O)O)c(Cl)c1` [Compound 6] gave a fraction unbound at 15 min, 10 µg/mL in data set [1] of 0.0457. For the same compound, the concentration for half-maximal inhibition (IC50) in data set [2] was 7 nM.

`O=C(/C=C/c1ccco1)NCc1cc(Cl)c(C(=O)N[C@@H](CNC(=O)[C@@H]2CCCCN2)C(=O)O)c(Cl)c1` [Compound 9] had a fraction unbound at 15 min, 10 µg/mL in data set [1] of 0.228. The IC50 in data set [2] amounted to 2 nM.

In data set [1], `O=C(/C=C/c1ccco1)NCc1cc(Cl)c(C(=O)N[C@@H](CNC(=O)[C@H]2C[C@H](O)CN2)C(=O)O)c(Cl)c1` [Compound 10] gave a fraction unbound at 15 min, 10 µg/mL of 0.341. Moreover, the IC50 in data set [2] amounted to 3 nM.

Compound `O=C(/C=C/c1ccco1)NCc1cc(Cl)c(C(=O)N[C@@H](CNC(=O)[C@H]2C[C@@H](O)CN2)C(=O)O)c(Cl)c1` [Compound 12] showed a fraction unbound at 15 min, 10 µg/mL in data set [1] of 0.205. In data set [2], the IC50 was determined as 2 nM.

`C[C@H]1CCN[C@@H]1C(=O)NC[C@H](NC(=O)c1c(Cl)cc(CNC(=O)/C=C/c2ccco2)cc1Cl)C(=O)O` [Compound 13] gave a fraction unbound at 15 min, 10 µg/mL in data set [1] of 0.224. The IC50 in data set [2] is 4 nM.

`O=C(/C=C/c1ccco1)NCc1cc(Cl)c(C(=O)N[C@@H](CNC(=O)[C@@H]2C[C@@H](O)CN2)C(=O)O)c(Cl)c1` [Compound 14]: in data set [1], the unbound share (fraction unbound) at 15 min, 10 µg/mL is 0.274. Besides, the IC50 in data set [2] turned out to be 2 nM.

Take `O=C(/C=C/c1ccco1)NCc1cc(Cl)c(C(=O)N[C@@H](CNC(=O)[C@H]2CSCN2)C(=O)O)c(Cl)c1` [Compound 15]: the fraction unbound at 15 min, 10 µg/mL in data set [1] is 0.0749. The IC50 in data set [2] stood at 4 nM.

Consider `CC(=O)N1CCC[C@H]1C(=O)NC[C@H](NC(=O)c1c(Cl)cc(CNC(=O)/C=C/c2ccco2)cc1Cl)C(=O)O` [Compound 17], for which the fraction unbound at 15 min, 10 µg/mL in data set [1] is 0.154. Besides, the IC50 in data set [2] is 3 nM.

As for `CN(C[C@H](NC(=O)c1c(Cl)cc(CNC(=O)/C=C/c2ccco2)cc1Cl)C(=O)O)C(=O)[C@@H]1CCCN1` [Compound 35], in data set [1], the fraction unbound at 15 min, 10 µg/mL is 0.486. In addition, the 50% inhibitory concentration (IC50) in data set [2] came to 9 nM.

Turning to `O=C(N[C@@H](CNC(=O)[C@@H]1CSCN1)C(=O)O)c1c(Cl)cc(C(O)CCc2cccc(O)c2)cc1Cl` (stereo partly drawn) [Compound 36], the fraction unbound at 15 min, 10 µg/mL in data set [1] was 0.0716. Also, the IC50 in data set [2] is 2 nM.

On to `O=C(N[C@@H](CNC(=O)[C@H]1C[C@@H](O)CN1)C(=O)O)c1c(Cl)cc(C(O)CCc2cccc(Cl)c2)cc1Cl` (stereo partly drawn) [Compound 37], for which the fraction unbound at 15 min, 10 µg/mL in data set [1] is 0.0681.

Turning to `O=C(/C=C/c1ccco1)NCc1cc(Cl)c(C(=O)N[C@@H](CNC(=O)[C@@H]2CSC(=O)N2)C(=O)O)c(Cl)c1` [Compound 38], the fraction unbound at 15 min, 10 µg/mL in data set [1] is 0.0671. For the same compound, in data set [2], the IC50 was determined as 12 nM.

Turning to `O=C(/C=C/c1ccco1)NCc1cc(Cl)c(C(=O)N[C@@H](CNC(=O)[C@@H]2CSC(=S)N2)C(=O)O)c(Cl)c1` [Compound 40], the fraction unbound at 15 min, 10 µg/mL in data set [1] was 0.0307. For the same compound, in data set [2], the IC50 was found to be 2 nM.

Consider `O=C(/C=C/c1ccco1)NCc1cc(Cl)c(C(=O)N[C@@H](CNC(=O)[C@H]2NCC[C@@H]2O)C(=O)O)c(Cl)c1` [Compound 41], for which the fraction unbound at 15 min, 10 µg/mL in data set [1] was 0.152. For the same compound, in data set [2], the IC50 was determined as 3 nM.

`O=C(/C=C/c1ccco1)NCc1cc(Cl)c(C(=O)N[C@@H](CNC(=O)C2CSCN2)C(=O)O)c(Cl)c1` (stereo partly drawn) [Compound 42] had a fraction unbound at 15 min, 10 µg/mL in data set [1] of 0.086. In addition, in data set [2], the IC50 was determined as 3 nM.

Consider `CC1CC[C@@H](C(=O)NC[C@H](NC(=O)c2c(Cl)cc(CNC(=O)/C=C/c3ccco3)cc2Cl)C(=O)O)N1` (stereo partly drawn) [Compound 44], for which, in data set [1], the free fraction (fraction unbound) at 15 min, 10 µg/mL is 0.17. The IC50 in data set [2] came out at 2 nM.

For the compound `O=C(/C=C/c1ccco1)NCc1cc(Cl)c(C(=O)N[C@@H](CNC(=O)C2CCCO2)C(=O)O)c(Cl)c1` (stereo partly drawn) [Compound 51], the fraction unbound at 15 min, 10 µg/mL in data set [1] is 0.072. Further, the IC50 in data set [2] turned out to be 5 nM.

The term fraction unbound denotes free concentration divided by total concentration. What is called IC50 is the concentration at which inhibition is half-maximal.
